Where two headings read alike, the source gives them in different places.
What was measured:
JAK2 = target: T1, JAK2 (Homo sapiens, UniProt O60674); test: Kinobeads assay, JAK2 (competition binding in mixed Molt4/Ramos cell lysate, dot blot detection); settings: read-out: JAK2 Band (Kinobeads assay potency, IC50)
T1 construct: endogenous in cells; host or cells: Molt4 (ATCC CRL-1582) and Ramos (ATCC CRL-1596), mixed lysate 1:2
Summary of the method: (§1)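 JAK2 and TYK2 retained on Kinobeads (immobilized aminopyrido-pyrimidine ligand) from 1:2 Molt4:Ramos lysate (10 mg/mL) were quantified by antibody dot blot (Odyssey infrared) after 3 h cold incubation with compound. Nine-step 1:3 dilution series; IC50 calculated from curves.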

TYK2 = target: T2, TYK2 (Homo sapiens, UniProt P29597); test: Kinobeads assay, TYK2 (competition binding in mixed Molt4/Ramos cell lysate, dot blot detection)
T2 construct: endogenous in cells; host or cells: Molt4 (ATCC CRL-1582) and Ramos (ATCC CRL-1596), mixed lysate 1:2
T2 sequence (P29597 whole entry): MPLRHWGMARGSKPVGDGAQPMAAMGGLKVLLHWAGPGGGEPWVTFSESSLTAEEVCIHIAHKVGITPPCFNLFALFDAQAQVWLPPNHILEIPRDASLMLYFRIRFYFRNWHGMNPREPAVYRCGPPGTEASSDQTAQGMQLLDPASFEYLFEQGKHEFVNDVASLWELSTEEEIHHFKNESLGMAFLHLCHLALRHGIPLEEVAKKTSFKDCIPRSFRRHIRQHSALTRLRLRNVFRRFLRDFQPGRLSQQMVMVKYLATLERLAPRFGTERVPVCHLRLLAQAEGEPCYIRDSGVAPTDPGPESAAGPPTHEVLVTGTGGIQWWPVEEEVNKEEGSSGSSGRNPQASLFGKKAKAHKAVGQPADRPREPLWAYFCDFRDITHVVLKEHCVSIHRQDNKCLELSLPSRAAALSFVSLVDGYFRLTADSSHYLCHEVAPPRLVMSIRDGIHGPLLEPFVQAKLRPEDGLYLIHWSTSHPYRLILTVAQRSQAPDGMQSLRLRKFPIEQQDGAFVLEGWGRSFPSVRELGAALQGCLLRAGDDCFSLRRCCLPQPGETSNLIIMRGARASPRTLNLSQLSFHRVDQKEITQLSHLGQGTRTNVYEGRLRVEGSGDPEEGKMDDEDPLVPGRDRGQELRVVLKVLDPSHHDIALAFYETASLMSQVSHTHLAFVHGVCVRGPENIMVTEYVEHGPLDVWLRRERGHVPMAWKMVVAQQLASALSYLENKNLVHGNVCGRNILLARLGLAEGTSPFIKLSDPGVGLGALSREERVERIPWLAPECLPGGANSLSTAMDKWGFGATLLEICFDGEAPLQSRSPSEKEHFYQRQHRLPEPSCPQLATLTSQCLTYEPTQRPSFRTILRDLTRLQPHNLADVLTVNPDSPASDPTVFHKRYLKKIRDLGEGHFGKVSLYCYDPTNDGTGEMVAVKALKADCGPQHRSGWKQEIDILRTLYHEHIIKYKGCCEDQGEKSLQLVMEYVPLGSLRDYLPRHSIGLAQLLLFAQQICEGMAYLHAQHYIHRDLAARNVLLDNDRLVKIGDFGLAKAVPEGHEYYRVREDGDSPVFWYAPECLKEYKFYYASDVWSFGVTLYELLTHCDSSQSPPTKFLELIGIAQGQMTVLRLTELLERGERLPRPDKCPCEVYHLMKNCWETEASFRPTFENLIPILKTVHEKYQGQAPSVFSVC
Summary of the method: as §1

[1] = Kinobeads assay, Molt4/Ramos lysate, read-out: TYK2 Band (Kinobeads assay potency, IC50)

T1 sequence (O60674 whole entry): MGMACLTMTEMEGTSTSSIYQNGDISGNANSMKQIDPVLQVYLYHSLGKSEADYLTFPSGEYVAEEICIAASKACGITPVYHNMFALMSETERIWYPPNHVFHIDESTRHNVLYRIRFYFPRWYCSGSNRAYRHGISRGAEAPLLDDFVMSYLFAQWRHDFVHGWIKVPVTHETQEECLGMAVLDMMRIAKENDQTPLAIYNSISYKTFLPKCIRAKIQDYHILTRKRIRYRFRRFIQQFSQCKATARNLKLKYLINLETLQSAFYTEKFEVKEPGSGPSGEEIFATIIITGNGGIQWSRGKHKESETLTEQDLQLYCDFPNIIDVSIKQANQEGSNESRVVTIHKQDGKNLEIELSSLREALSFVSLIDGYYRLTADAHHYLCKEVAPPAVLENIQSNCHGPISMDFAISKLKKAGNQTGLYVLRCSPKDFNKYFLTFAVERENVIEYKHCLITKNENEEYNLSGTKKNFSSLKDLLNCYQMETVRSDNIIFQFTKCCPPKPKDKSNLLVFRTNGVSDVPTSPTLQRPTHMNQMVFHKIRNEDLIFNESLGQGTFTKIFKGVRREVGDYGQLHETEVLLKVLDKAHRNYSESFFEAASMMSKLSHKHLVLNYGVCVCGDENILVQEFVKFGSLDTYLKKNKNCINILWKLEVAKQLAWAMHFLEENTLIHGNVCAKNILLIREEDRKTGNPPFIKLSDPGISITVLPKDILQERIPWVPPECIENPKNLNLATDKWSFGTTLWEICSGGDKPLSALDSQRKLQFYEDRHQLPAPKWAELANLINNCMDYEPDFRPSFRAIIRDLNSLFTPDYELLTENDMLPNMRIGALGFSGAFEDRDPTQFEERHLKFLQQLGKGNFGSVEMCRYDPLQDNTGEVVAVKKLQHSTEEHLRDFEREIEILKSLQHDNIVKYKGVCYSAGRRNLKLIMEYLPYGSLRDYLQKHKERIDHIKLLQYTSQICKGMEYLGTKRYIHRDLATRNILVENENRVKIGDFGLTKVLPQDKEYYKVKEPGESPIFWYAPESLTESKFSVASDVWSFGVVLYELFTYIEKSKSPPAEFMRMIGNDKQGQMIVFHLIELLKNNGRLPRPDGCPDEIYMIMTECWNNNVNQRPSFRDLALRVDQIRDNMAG

COc1c(F)cc(F)cc1CNc1nc(Nc2cnn(C)c2)ncc1Cl [Example I-276]
IC50 (JAK2): 10 to 100 nM | IC50 (TYK2; [1]): 100 to 1000 nM

Cc1cnc(Nc2cnn(CC(=O)N(C)C)c2)nc1NCc1c(F)cccc1F [Example I-299]
IC50 (JAK2): 100 to 1000 nM | IC50 (TYK2; [1]): ≤ 10 nM

O=C(O)Cn1cc(Nc2ncc(Cl)c(NCc3ccccc3)n2)cn1 [Example I-222]
IC50 (JAK2): 1000 to 10000 nM | IC50 (TYK2; [1]): 100 to 1000 nM

O=C(O)Cn1cc(Nc2ncc(Cl)c(NCc3cc(F)cc(F)c3)n2)cn1 [Example I-168]
IC50 (JAK2): 100 to 1000 nM | IC50 (TYK2; [1]): 100 to 1000 nM

CNC(=O)Cn1cc(Nc2ncc(Cl)c(NCc3cc(F)cc(C(F)(F)F)c3)n2)cn1 [Example I-189]
IC50 (JAK2): 1000 to 10000 nM | IC50 (TYK2; [1]): 100 to 1000 nM

Cc1cnc(Nc2cnn(CC(=O)N(C)C)c2)nc1NCc1cc(F)cc(C(F)(F)F)c1 [Example I-330]
IC50 (JAK2): 1000 to 10000 nM | IC50 (TYK2; [1]): 100 to 1000 nM

C[C@@H](CO)NC(=O)Cn1cc(Nc2nccc(NCc3c(Cl)cccc3Cl)n2)cn1 [Example I-3, (S)-2-(4-((4-((2,6-dichlorobenzyl)amino)pyrimidin-2-yl)amino)-1H-pyrazol-1-yl)-N-(1-hydroxypropan-2-yl)acetamide]
IC50 (JAK2): 1000 to 10000 nM | IC50 (TYK2; [1]): 10 to 100 nM | IC50 (TYK2; read-out: TYK2 IC50): < 100 nM

CNC(=O)Cn1cc(Nc2ncc(Cl)c(NCc3cccc(OCC#N)c3)n2)cn1 [Example I-364]
IC50 (JAK2): 1000 to 10000 nM | IC50 (TYK2; [1]): 100 to 1000 nM

Cn1cc(Nc2ncc(F)c(NCc3c(Cl)ccc(Cl)c3F)n2)cn1 [Example I-457]
IC50 (JAK2): 100 to 1000 nM | IC50 (TYK2; [1]): 10 to 100 nM

Fc1cc(F)c(CNc2ccnc(Nc3cnn(CCN4CCOCC4)c3)n2)c(F)c1 [Example I-112]
IC50 (JAK2): 1000 to 10000 nM | IC50 (TYK2; [1]): 10 to 100 nM | IC50 (TYK2; read-out: TYK2 IC50): < 100 nM

NS(=O)(=O)c1ccc(CNc2nc(Nc3cnn(CC(=O)N4CCCCC4)c3)ncc2F)cc1 [Example I-30]
IC50 (JAK2): > 10000 nM | IC50 (TYK2; [1]): 10 to 100 nM

Cn1cc(Nc2ncc(Cl)c(NCc3c(F)ccc(F)c3F)n2)cn1 [Example I-340]
IC50 (JAK2): 100 to 1000 nM | IC50 (TYK2; [1]): 10 to 100 nM

CS(=O)(=O)c1ccc(F)cc1CNc1nc(Nc2cnn(CC(N)=O)c2)ncc1F [Example I-489]
IC50 (JAK2): 100 to 1000 nM | IC50 (TYK2; [1]): 10 to 100 nM

CCOc1ccc(F)c(CNc2nc(Nc3cnn(CC(=O)N(C)C)c3)ncc2Cl)c1F [Example I-268]
IC50 (JAK2): 1000 to 10000 nM | IC50 (TYK2; [1]): 10 to 100 nM

COc1ccc(F)c(CNc2nc(Nc3cnn(CC(=O)O)c3)ncc2Cl)c1F [Example I-295]
IC50 (JAK2): 1000 to 10000 nM | IC50 (TYK2; [1]): 10 to 100 nM

C[C@H](CO)NC(=O)Cn1cc(Nc2nccc(NCc3c(F)cccc3F)n2)cn1 [Example I-490]
IC50 (JAK2): 1000 to 10000 nM | IC50 (TYK2; [1]): 10 to 100 nM

Cc1cnc(Nc2cnn(C)c2)nc1NCc1c(F)ccc(F)c1F [Example I-420]
IC50 (JAK2): 100 to 1000 nM | IC50 (TYK2; [1]): 10 to 100 nM

CC(C)NC(=O)Cn1cc(Nc2ncc(F)c(NCc3c(F)ccc(F)c3F)n2)cn1 [Example I-455]
IC50 (JAK2): 1000 to 10000 nM | IC50 (TYK2; [1]): ≤ 10 nM

Fc1cccc(F)c1CNc1nc(Nc2cnn(CC(F)F)c2)ncc1Cl [Example I-469]
IC50 (JAK2): 100 to 1000 nM | IC50 (TYK2; [1]): 100 to 1000 nM

CS(=O)(=O)c1ccccc1CNc1nc(Nc2cnn(CC(N)=O)c2)ncc1Cl [Example I-450]
IC50 (JAK2): 100 to 1000 nM | IC50 (TYK2; [1]): 100 to 1000 nM

COc1cc(F)c(CNc2nc(Nc3cnn(CC(=O)NC(C)C)c3)ncc2F)c(F)c1 [Example I-70]
IC50 (JAK2): > 10000 nM | IC50 (TYK2; [1]): 10 to 100 nM

C[C@@H](CO)NC(=O)Cn1cc(Nc2nccc(NCc3c(F)cc(F)cc3Cl)n2)cn1 [Example I-132]
IC50 (JAK2): 1000 to 10000 nM | IC50 (TYK2; [1]): ≤ 10 nM

Cc1cccc(F)c1CNc1ccnc(Nc2cnn(CC(=O)N[C@@H](C)CO)c2)n1 [Example I-156]
IC50 (JAK2): 1000 to 10000 nM | IC50 (TYK2; [1]): ≤ 10 nM

O=C(Cn1cc(Nc2nccc(NCc3c(F)cc(F)cc3F)n2)cn1)NC1CC1(F)F (stereo not drawn) [Example I-91]
IC50 (JAK2): > 10000 nM | IC50 (TYK2; [1]): 10 to 100 nM

Cn1cc(Nc2ncc(Cl)c(NCc3cccc(Br)c3)n2)cn1 [Example I-163]
IC50 (JAK2): 1000 to 10000 nM | IC50 (TYK2; [1]): 100 to 1000 nM

CS(=O)(=O)Cn1cc(Nc2ncc(Cl)c(NCc3ccccc3)n2)cn1 [Example I-254]
IC50 (JAK2): 1000 to 10000 nM | IC50 (TYK2; [1]): 100 to 1000 nM

Source: patent US9296725B2, “Heterocyclyl pyrimidine analogues as TYK2 inhibitors” (Cellzome Limited, priority 2012, dated 2016)
